Data reported in patent US20200123127A1, “REMOVAL OF SENESCENCE-ASSOCIATED MACROPHAGES” (EVERON BIOSCIENCES, INC., priority 2016, published 2020).
Entries after “also recorded” stand apart in the source; their conditions may differ.

How the values were obtained:
[1] = tested on: p16(Ink4a) expression in SAMs; experiment: p16(Ink4a) promoter-dependent luciferase activity in alginate bead-elicited macrophages (SAMs) ex vivo; type: cell-based, mouse; conditions: for Modulation of p16(Ink4a): SAMs: SAMs from NDF alginate beads, dose-response testing; for effect on luciferase activity (M1-inducing agents): IFN-γ 10 ng/mL, Poly(I:C) 10 μg/mL, IFN-α 100 U/mL, 72 hours
Procedure: (§1) FIG. 7. Immunomodulatory regulation of p16(Ink4a) and SAβG in macrophages. Peritoneal lavage cells elicited by alginate-encapsulated SCs from p16^Ink4a/Luc mice were treated ex vivo with immunomodulatory agents for 72 hours. A) p16 promoter-dependent luciferase activity (black bars) and […] activity (via 4-MUG hydrolysis) (gray bars) were measured following treatment with M1- and M2-polarizing stimuli: LPS at 1 ng/mL, IFN-γ at 10 ng/mL, LPS/IFN-γ co-treatment, Poly(I:C) at 10 μg/mL, IFN-α at 100 U/mL, IL-4 at 20 ng/mL, IL-13 at 10 ng/ml, and IL-4/IL-13 co-treatment. Results are shown as the mean±standard deviation for at least 3 independent experiments, with statistical significance between treated compared to non-treated samples depicted. B) Dose-dependent response of JAK1/2 inhibitor Ruxolitinib on luciferase activity in elicited macrophages in the presence (gray bars) or absence (black bars) of IL-4 (10 ng/mL) stimulation. Enzyme activities are expressed as the percent activity relative to non-treated (NT) controls per cell. Statistical significance between IL-4 stimulated and non-stimulated cells at each concentration of ruxolitinib is shown.
FIG. 8. Immunomodulatory regulation of p16(Ink4a) and SAβG in macrophages. Peritoneal lavage cells elicited by alginate-encapsulated SCs from p16^Ink4a/Luc mice were treated ex vivo with immunomodulatory agents for up to 72 hours. (A) mRNA expression of p16(Ink4a) and β-galactosidase (Glb1) in macrophages (relative to B2m expression) with or without LPS stimulation for 72 hours analyzed via qRT-PCR, normalized to non-treated controls. (B) Microphotograph of SAβG-stained adherence-selected macrophages with or without stimulation with LPS (1 ng/mL) for 72 hours (10× objective). (C&D) Kinetics of p16(Ink4a) promoter-dependent luciferase activity per cell with or without LPS stimulation (C) or IL-4 stimulation (D), normalized to activity from non-treated cells at time zero. Results are shown as the mean±standard deviation for at least 3 experiments. Statistical significance with respect to non-treated control at time zero is indicated. (E) Luciferase activity and (3-galactosidase activity (via 4-MUG hydrolysis) from proteose peptone-elicited lavage cells following stimulation with IL-4 (20 ng/mL) for 72 hours, normalized to non-treated controls. (F) Viability following 72 hour dose-response to JAK1/2 inhibitor Ruxolitinib in the presence or absence of IL-4 (10 ng/mL) stimulation, measured by CyQuant Direct DNA-based viability assay. Viability normalized to respective controls lacking Ruxolitinib. (G&H) Dose-response of STAT6 inhibitor AS1517499 against luciferase activity (G) and viability via CyQuant Direct assay (H) following 72 hour treatment in the presence and absence of IL-4 (10 ng/mL). Results normalized to respective controls (with or without IL-4) lacking STAT6 inhibitor. Statistical significance is calculated with respect to the difference between IL-4 stimulated and non-stimulated cells at each concentration of STAT6 inhibitor. (I) Relative luciferase activity per cell following repolarization with M1- and M2-inducing agents. Macrophages were left non-treated (NT) or treated with either LPS (1 ng/ml) or IL-4 (20 ng/ml) for 72 hours (days 1-3), as indicated. For each treatment set, samples were collected at 72 hours (no further treatment; days 4-6=x). Alternatively, cells were washed and placed in fresh medium (−), medium containing LPS (1 ng/mL) and IFN-γ (10 ng/mL), or medium containing IL-4 (20 ng/mL) and IL-13 (10 ng/mL) and incubated for an additional 72 hours prior to sample collection (as indicated for days 4-6). Luciferase activity is expressed as the percent activity per cell relative to non-treated (NT) controls after the first 72 hours.
Luciferase activity of cell lysates was accessed using Bright-Glo™ Luciferase Assay System (Promega; Madison, Wis.) according to manufacturer's instructions with minor modifications. […]

[2] = tested on: β-galactosidase in SAMs; experiment: β-galactosidase activity (4-MUG hydrolysis) in alginate bead-elicited macrophages (SAMs) ex vivo; type: cell-based, mouse; conditions: for effect on β-gal activity (polarizing agents): 72 hours, IFN-γ 10 ng/mL, Poly(I:C) 10 μg/mL, IFN-α 100 U/mL, IL-4 20 ng/mL, IL-13 10 ng/ml; for β-galactosidase production by SAM cells (MUG assay): concentrations of 2.5 to 10 μM
Procedure: as §1
FIG. 13. Effect of TA-4812 on β-gal expression and cell viability. Asenins TA-04812-1, was assayed for its effects on SAM viability, proliferation, and β-gal expression. SAM viability was determined using the resazurin cell viability assay (Res). Cell proliferation was assessed using the CyQuant assay (CyQUANT® Direct Cell proliferation Assay, ThermoFisher Scientific, Waltham, Mass., Catalog # C35011, performed according to manufacturer's instructions) (CyQ). β-gal production was assessed using the MUG assay, a quantitative assay to determine the level of β-gal expression using 4-methylumbelliferylgalactopyranoside (MUG) as substrate.
A fluorogenic substrate for β-galactosidase, 4-MUG (4-Methylumbelliferyl β-D-Galactopyranoside; Sigma-Aldrich), was used for the quantitation of enzymatic β-gal activity from cell lysates, assayed under β-gal^pH6 conditions (i.e. pH 6.0). In a 96-well white microplate, 5 μl of diluted cell lysate was combined with 45 μl of fluorogenic β-gal^pH6 reaction buffer: 1 mM 4-MUG in 100 mM citric acid/sodium phosphate buffer, pH 6.0, containing 2 mM MgCl2, 150 mM NaCl and 0.02% NP-40. Kinetics of product formation at room temperature was determined by measuring fluorescence (Ex/Em 360 nm/440 nm) of the reaction mixture at regular intervals over a 2-hour time period. Reaction endpoints were determined by addition of 150 μl of 700 mM sodium carbonate. The rate of reaction (RFU/min) for each sample was determined, and normalized per μg of protein.
To determine whether macrophage polarization regulates p16(Ink4a) and SAβG expression, peritoneal lavage from p16^Ink4a/Luc mice elicited by our alginate bead model were stimulated with M1- and M2-inducing agents and subsequently, luciferase activity (driven by endogenous p16(Ink4a) promoter) and β-galactosidase activity (assayed via 4-MUG hydrolysis) were measured (FIG. 7A). […] Consistently, LPS decreased the intensity of SAβG staining in treated macrophages. The response of macrophages to LPS was rapid, with a significant decrease in luciferase activity observed within 8 hours (˜40% decrease).
We investigated whether the mechanisms regulating the expression of these traits in macrophages were similar to those found in SCs. Using cells isolated from p16^Ink4a/Luc mice, the dose-dependent response of luciferase and β-galactosidase activities to immunomodulatory stimuli in macrophages was compared to that of proliferating and irradiation-induced senescent adipose-derived mesenchymal stromal cells. […] LPS stimulation of alginate bead model-elicited macrophages reduced luciferase activity, with maximal inhibition (˜85%) observed at concentrations ≥1 ng/mL (FIG. 10A). In addition, β-galactosidase activity was reduced by 40% at 10 ng/mL (FIG. 10B). […]

Molecule	Modulation of p16(Ink4a): SAMs [1]	effect on β-gal activity (polarizing agents) [2]	effect on luciferase activity (M1-inducing agents) [1]	also measured
IL-4: M2-polarizing cytokine	increase	without modulating β-gal activity	–	–
IL-13: M2-polarizing cytokine	increase	without modulating β-gal activity	–	–
COc1ccc(C2CC(=NO)c3c(SCc4ccccc4)sc(C(=O)NCc4cccc(F)c4)c3C2)cc1 (stereo not shown) [Example A1.6, 3-(Benzylthio)-N-(3-fluorobenzyl)-4-(hydroxyimino)-6-(4-methoxyphenyl)-4,5,6,7-tetrahydrobenzo[c]thiophene-1-carboxamide]	decrease	–	–	β-galactosidase production by SAM cells (MUG assay) ([2]; listed as TA-4812): reduce β-galactosidase production; β-galactosidase production by SAM cells (MUG assay) ([2]; listed as TA-04812-1): reducing β-gal expression
O=C(NCCCc1cn[nH]c1)c1ccc(-c2ccncc2)c(C#Cc2ccc(F)cc2)c1 [OT-82]	decrease	–	–	expression of p16 (luciferase) in SAMs ([1]; OT-82, 500 nM): selectively decrease; also recorded: significantly downregulates; β-galactosidase expression/activity in SAMs ([2]; OT-82, 500 nM): no effect; also recorded: little effect
IFN-α	–	without affecting β-gal activity	decreased luciferase activity	–
Poly(I:C)	decrease	without affecting β-gal activity	decreased luciferase activity	luciferase activity, dose-response ([1]; 72 hr, selective to macrophages): dose-dependent decrease; β-galactosidase activity, dose-response ([2]; Poly(I:C), 72 hr): no effect
IFN-γ: type II interferon, M1-inducing agent (protein, UniProt P01579 24-161, looked up) Interferon gamma: QDPYVKEAENLKKYFNAGHSDVADNGTLFLGILKNWKEESDRKIMQSQIVSFYFKLFKNFKDDQSIQKSVETIKEDMNVKFFNSNKKKRDDFEKLTNYSVTDLNVQRKAIHELIQVMAELSPAAKTGKRKRSQMLFRG	–	without affecting β-gal activity	decreased luciferase activity	–
